Data as given in article PMC13165350, “In Vitro Antiproliferative Effects of Benzothiazole-Based Aminosquaraine Dyes Against Cancer Cell Lines” (Molecules, 2026).

Tested on: MCF-7 cells (breast adenocarcinoma)
Test: cells
Format: cell-based
Conditions: Homo sapiens, MCF7; MTT, 72 h, 0.01–50 µM, dark conditions
Description: The cytotoxic effects of the aminosquaraines 1–8 were evaluated in breast (MCF-7 and T47D) and prostate (LNCaP) cancer cell lines using the MTT assay, as previously described [17]. […] Normal human dermal fibroblasts (NHDF) were included as a non-cancer model to assess tumor selectivity.
In a preliminary screening, cells were exposed to a single concentration (30 µM) of each dye for 72 h to assess metabolic activity.
The studied compounds were dissolved in dimethyl sulfoxide to prepare 10 mM stock solutions and stored at 4 °C. Working solutions were prepared from these stocks at the desired concentrations (30 µM for preliminary studies and 0.01, 0.1, 1, 10, 25, and 50 µM for concentration–response studies) by dilution in complete culture medium immediately before each experiment.
Metabolic activity was assessed by quantifying the reduction of 3-(4,5-dimethylthiazol-2-yl)-2,5-diphenyltetrazolium bromide (MTT), according to a previously described procedure [17]. […] Absorbance was recorded at 570 nm using an xMark™ microplate reader (Bio-Rad, Hercules, CA, USA) using Microplate Manager 6.3 software. Cell viability was calculated as a percentage relative to untreated control cells.
Selectivity indices were determined as the ratio between IC50 values obtained in the NHDF cell line and those obtained in the corresponding tumor cell lines.

O=c1[nH]cc(F)c(=O)[nH]1 [5-FU, 5-fluorouracil]
IC50: 1710 nM
